pIC50: −log10 of the molar value. Like-named read-outs stand apart in the source and are kept apart here.
Experiments:
Menin-MLL = molecular target: T1, Menin-MLL (Homo sapiens, UniProt O00255); test: Inhibitory activity against Menin-MLL binding (fluorescence polarization); conditions: 150 nM His-Menin, 15 nM FITC-MLL, 25°C for 60 min
T1 construct: His-Menin (M1-L615 end); purchased BIORTUS BP9210
T1 sequence (O00255 1-615 isoform O00255-1): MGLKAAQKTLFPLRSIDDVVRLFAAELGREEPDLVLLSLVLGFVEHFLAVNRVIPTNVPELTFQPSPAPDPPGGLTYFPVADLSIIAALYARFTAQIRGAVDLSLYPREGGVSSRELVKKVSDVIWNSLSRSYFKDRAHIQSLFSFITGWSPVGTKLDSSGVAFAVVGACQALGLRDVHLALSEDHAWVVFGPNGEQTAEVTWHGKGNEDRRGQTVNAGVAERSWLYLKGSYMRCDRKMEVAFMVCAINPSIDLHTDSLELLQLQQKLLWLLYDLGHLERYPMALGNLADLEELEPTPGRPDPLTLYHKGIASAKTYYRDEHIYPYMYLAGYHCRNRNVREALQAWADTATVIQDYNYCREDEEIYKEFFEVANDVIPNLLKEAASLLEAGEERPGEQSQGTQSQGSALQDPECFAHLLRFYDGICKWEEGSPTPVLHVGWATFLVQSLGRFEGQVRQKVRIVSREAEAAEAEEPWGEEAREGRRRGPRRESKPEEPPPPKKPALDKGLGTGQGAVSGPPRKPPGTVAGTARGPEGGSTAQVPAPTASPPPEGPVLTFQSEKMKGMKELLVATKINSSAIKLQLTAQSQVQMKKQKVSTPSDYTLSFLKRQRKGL
Procedure, shortened: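 His-Menin (M1-L615, 150 nM) preincubated with compound 15 min at 25 °C in HEPES pH 7.5, 50 mM NaCl, 1 mM DTT, 0.01% BSA, then 15 nM FITC-MLL4-43 peptide added for 60 min at 25 °C. Fluorescence polarization read; IC50 from 4-parameter logistic fit, duplicates.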

[1] = test system: MOLM-13 (carrying MLL-AF9); test: Inhibition of proliferation of human tumor cells (Alamar Blue, 7 days), MOLM-13; format: cell-based; conditions: Homo sapiens, MOLM-13 cells (carrying MLL-AF9), method calls the value GI50
Procedure, shortened: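 Cells seeded at 4,000/well (MV-4-11, MOLM-13) or 3,000/well (KG-1a) in serum-supplemented IMDM or RPMI-1640, 37°C, 5% CO2, then exposed to 3- or 4-fold compound dilutions in duplicate for 7 days. Alamar Blue fluorescence read; GI50 derived against Day 7 0.1% DMSO (high) and Day 0 (low) controls.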

[2] = fluorescence polarization, read-out: Menin-MLL IC50
[3] = Menin-MLL IC50, fluorescence polarization

CCN(C(=O)c1cc(F)ccc1-c1cc(C2CN([C@H](CCCN3CCN(C(CO)CO)CC3)C(C)C)C2)cc2c1cnn2C)C(C)C [Example 433, 2-(6-{1-[(3R)-6-[4-(1,3-dihydroxylpropan-2-yl)piperazin-1-yl]-2-methylhexan-3-yl]azacyclobutan-3-yl}-1-methyl-1H-indazol-4-yl)N-ethyl-5-fluoro-N-(isopropyl)benzamide] was tested, and the pIC50 (Menin-MLL; [2]) was 8.48 and the pIC50 ([1]; 168 h) was 7.74.
CCN(C(=O)c1cc(F)ccc1-c1cc(C2CN([C@H](CCCN3C4CCC3CN(C(C)=O)C4)C(C)C)C2)cn2c(C)ncc12)C(C)C [Example 378, 2-(6-{1-[(3R)-6-{3-acetyl-3,8-diazabicyclo[3.2.1]oct-8-yl}-2-methylhexan-3-yl]azacyclobutan-3-yl}-3-methylimidazo[1,5-a]pyridin-8-yl)-N-ethyl-5-fluoro-N-(isopropyl)benzamide] was tested, and the pIC50 (Menin-MLL; [2]) was 8.55 and the pIC50 ([1]; 168 h) was 8.24.
For CCN(C(=O)c1cc(F)ccc1-c1cc(C2CN([C@H](CCCN3CCC(OC)CC3)C(C)C)C2)cc2c1cnn2C)C(C)C [Example 399-2, N-ethyl-5-fluoro-2-(6-{1-[(3R)-6-(4-methoxypiperidin-1-yl)-2-methylhexan-3-yl]azacyclobutan-3-yl}-1-methyl-1H-indazol-4-yl)-N-(isopropyl)benzamide], the pIC50 (Menin-MLL; [2]) was 8.48 and the pIC50 ([1]; 168 h) was 7.60.
CCN(C(=O)c1cc(F)ccc1-c1cc(C2CN([C@H](CN3CCN(C(CO)CO)CC3)C(C)C)C2)cc2c1cnn2C)C(C)C [Example 419] was tested, and the pIC50 (Menin-MLL; [2]) was 8.09 and the pIC50 ([1]; 168 h) was 7.07.
CCN(C(=O)c1cc(F)ccc1-c1cc(C2CN(C(CCCN3CCNC(CC#N)C3)C(C)C)C2)cn2c(C)ncc12)C(C)C (stereo not drawn) [Example 498] was tested, and the pIC50 (Menin-MLL; [3]) was 8.55 and the pIC50 ([1]; MOLM-13, 168 h) was 7.64.
With CCN(C(=O)c1cc(F)ccc1-c1cc(C2CN([C@H](CN3CCN(C[C@@H](O)CO)CC3)C(C)C)C2)cc2c1cnn2C)C(C)C [Example 434] the pIC50 (Menin-MLL; [3]) was 8.06 and the pIC50 ([1]; MOLM-13, 168 h) was 7.49.
CCN(C(=O)c1cc(F)ccc1-c1cc(C2CN([C@H](CN3CCS(=O)(=O)CC3)C(C)C)C2)cn2c(C)ncc12)C(C)C [Example 441-1, 2-(6-{1-[(2S)-1-(1,1-dioxo-thiomorpholin-4-yl)-3-methylbutan-2-yl]azacyclobutan-3-yl}-3-methylimidazo[1,5-a]pyridin-8-yl)-N-ethyl-5-fluoro-N-(isopropyl)benzamide] was tested, and the pIC50 (Menin-MLL; [2]) was 7.96 and the pIC50 ([1]; 168 h) was 7.12.
Compound COCCN(C(=O)c1cc(F)ccc1-c1cc(C2CN([C@H](CCCN3C[C@H]4C[C@@H]3CO4)C(C)C)C2)cn2c(C)ncc12)C(C)C [Example 467-1, 5-fluoro-N-(2-methoxyethyl)-2-(3-methyl-6-{1-[(3R)-2-methyl-6-[(1R,4R)-2-oxa-5-azadicyclo[2.2.1]heptan-5-yl]hexan-3-yl]azacyclobutan-3-yl}imidazo[1,5-a]pyridin-8-yl)-N-(isopropyl)benzamide] has a pIC50 (Menin-MLL; [3]) of 8.82 and a pIC50 ([1]; MOLM-13, 168 h) of 7.64.
For CCN(C(=O)c1cc(F)ccc1-c1cc(C2CN([C@H](CCCN3CCN(CCOC)CC3)C(C)C)C2)cn2c(C)ncc12)C(C)C [Example 497], the pIC50 (Menin-MLL; [2]) was 9.05 and the pIC50 ([1]; 168 h) was 7.39.
In the case of CCN(C(=O)c1cc(F)ccc1-c1cc(C2CN([C@H](CCCN3CCN(C)[C@@H](CO)C3)C(C)C)C2)cn2c(C)ncc12)C(C)C [Example 506], the pIC50 (Menin-MLL; [2]) was 9.05 and the pIC50 ([1]; 168 h) was 7.89.
CCN(C(=O)c1cc(F)ccc1-c1cc(C2CN([C@H](CCCN3CC4(C3)CN(C(C)=O)C4)C(C)C)C2)cc2c1cnn2C)C(C)C [Example 409] gave a pIC50 (Menin-MLL; [2]) of 8.40 and a pIC50 ([1]; 168 h) of 7.51.
CCN(C(=O)c1cc(F)ccc1-c1cc(C2CN([C@@H](CN3CCN(C)CC3)C(C)C)C2)cn2c(C)ncc12)C(C)C [Example 403-2, N-ethyl-5-fluoro-2-(3-methyl-6-{1-[(2R)-3-methyl-1-(4-methylpiperazin-1-yl)butan-2-yl]azacyclobutan-3-yl}imidazo[1,5-a]pyridin-8-yl)-N-(isopropyl)benzamide] gave a pIC50 (Menin-MLL; [2]) of 8.00 and a pIC50 ([1]; 168 h) of 7.42.
Compound Cc1cncc2c(-c3ccc(F)cc3C(=O)N(C)C(C)C)cc(CC3CN([C@H](CCCN4CCN(CCO)CC4)C(C)C)C3)n12 [Example 477-1, 5-fluoro-2-[6-({1-[(3R)-6-[4-(2-hydroxylethyl)piperazin-1-yl]-2-methylhexan-3-yl]azacyclobutan-3-yl}methyl)-4-methylpyrrolo[1,2-a]pyrazin-8-yl]-N-methyl-N-(isopropyl)benzamide] has a pIC50 (Menin-MLL; [2]) of 8.96 and a pIC50 ([1]; 168 h) of 8.00.
With CCN(C(=O)c1cc(F)ccc1-c1cc(C2CN([C@H](CN3CCN(CCO)CC3)C(C)C)C2)cc2c1cnn2C)C(C)C [Example 416-2, N-ethyl-5-fluoro-2-(6-{1-[(2S)-1-[4-(2-hydroxyethyl)piperazin-1-yl]-3-methylbutan-2-yl]azacyclobutan-3-yl}-1-methyl-1H-indazol-4-yl)-N-(isopropyl)benzamide] the pIC50 (Menin-MLL; [2]) was 7.97 and the pIC50 ([1]; 168 h) was 7.16.
Compound CCN(C(=O)c1cc(F)ccc1-c1cc(C2CN([C@H](CCCN3C4CC3CN(C(C)=O)C4)C(C)C)C2)cn2c(C)ncc12)C(C)C [Example 387] has a pIC50 (Menin-MLL; [2]) of 8.60 and a pIC50 ([1]; 168 h) of 8.05.
Cc1ncc2c(-c3ccc(F)cc3C(=O)N3CCOC[C@H]3C)cc(C3CN([C@H](CCCN4CCN(CCF)CC4)C(C)C)C3)cn12 [Example 363] showed a pIC50 (Menin-MLL; [2]) of 8.21 and a pIC50 ([1]; 168 h) of 7.70.
CCN(C(=O)c1cc(F)ccc1-c1cc(C2CN([C@H](CN3CCN(C[C@@H](O)CO)CC3)C(C)C)C2)cn2c(C)ncc12)C(C)C [Example 429] was tested, and the pIC50 (Menin-MLL; [2]) was 8.59 and the pIC50 ([1]; 168 h) was 7.60.
In the case of CCN(C(=O)c1cc(F)ccc1-c1cc(C2CN([C@H](CCCN(C)CCOC)C(C)C)C2)cn2c(C)ncc12)C(C)C [Example 510], the pIC50 (Menin-MLL; [2]) was 9.05 and the pIC50 ([1]; 168 h) was 8.00.

Source: EP4782453A1 (Beyang Therapeutics Co., Ltd., priority 2023, dated 2025)
